The test system of experiment [1] is CHO cell line producing adalimumab. The experiment can be described thus: Glycosylation profile (N-linked glycans released, labeled, chromatography) with arginine in culture. The format is cell-based, Chinese Hamster. On the procedure:
(§1) A transduced CHO cell line was used with three different culture media (Media 1, 2 and 3) in a fed-batch process with 5 different feeds (Feed 1,2,3,4 and 5) and at two culture scales, AMBR system (15 mL culture) and 1 L scale Bioreactors. Feeding strategy was based on maintaining glucose concentration between 3-4 g/L through the addition of different amount of feeding depending on glucose concentration measurement in culture media.
(§2) Process parameters & Conditions AMBR: T: 36.5 °C; Stirrer: 900 rpm; DO: 20%; pH:6.8-7.20; initial density: 0.5x10^6 cells/mL. Process parameters & Conditions 1 L: T: 36.5 °C; Stirrer: 200 rpm/240 rpm (day 7); DO: 20%; pH: 6.8-7.20; initial density: 0.5x10^6 cells/mL.
N-linked glycans were released from IgG samples by overnight incubation with N-glycosidase. The released glycans were labeled with a specific fluorophore. The labeled glycans were bound and separate by a chromatography. N-linked glycan structures were assigned to peaks based on comparison to reference structures. The amount of each structure is expressed as the percentage of total peak area. G0, G1, and G2 refer to complex, neutral, biantennary structures with 0, 1, or 2 terminal galactose residues, while G0F, G1 F, are G2F, are the corresponding core fucosylated structures.
Afucosylation: [GO-GlcNac + G0 + G1 + G2] / [GO-GlcNac + G0 + G0F + G1 + G1 F + G2 + G2F]

Experiment [2] shares this test system. Put plainly: Viable cell density (VCD) and viability in fed-batch culture with arginine. The format is cell-based, Chinese Hamster. On the procedure:
The cells were cultured in AMBR vessels in the cell culture media described above. The vessels were maintained at 36.5 °C, pH 7±0.2, 20% of DO and at 900 rpm of stirrer. They were seeded at 0.5 x 10^6 cells per ml in a volume of 11 mL. On days 0, 3, and 5, at least 2% of initial culture volume of feed medium and 0.2% of initial culture volume of cystine/tyrosine were added. Day 0 is the day in which the cultures were started, day 1 is the first day thereafter, day 2 is the second day thereafter, etc. Protein titer was determined on days 10, 12, 14 and 16.
The cells were cultured in 1 L scale bioreactor in the above described cell culture media. The cultures were maintained at 36.5 °C, pH 7±0.2, 20% of oxygen dissolved (DO) and at 200 rpm of stirrer. They were seeded at 0.5 x 10^6 cells per ml in a volume of 600mL. On days 0, 3, and 5, at least 2% of initial culture volume of feed medium and 0.2% of initial culture volume of cystine/tyrosine were added.
as §1, §2

Where [3] appears, read: Media_1 Feed_2, 2 and 4 g/L arginine, AMBR.

For `N=C(N)NCCC[C@H](N)C(=O)O` [Arg, arginine], in experiment [1] (Media_2 Feed_1, 4 g/L arginine, day 16, 1 L bioreactor), the “increment in G0 forms” value was “higher than 50%”. In addition, the “increment in G1 forms” value in experiment [1] (Media_3 Feed_3, 4 g/L arginine, day 14, AMBR) is on record as “higher than 50%”; in experiment [1] (Media_3 Feed_4, 4 g/L arginine, day 16, AMBR) it was “higher than 50%”. Moreover, the “reduction of VCD (maximum)” value in experiment [2] (setting [3]) was “about 2 million cells”. Further, the viability entry in experiment [2] (setting [3]) is on record as “do nott affect viability”. Moreover, the “cell growth and viability” value in experiment [2] (Media_1 Feed_2, 8 g/L arginine, AMBR) is listed as “important reduction on cell growth affecting viability”. Further, the maximum cell density entry in experiment [2] (Media_2 Feed_1, 0-4 g/L arginine, AMBR) was “does not reduce the maximum cell density reached”; in experiment [2] (Media_2 Feed_1, 4 g/L arginine, 1 L bioreactor), “a delay and a decrease in the obtained maximum cell density”. Also, in experiment [2] (Media_2 Feed_2, 2 g/L arginine, AMBR), the “maximum VCD” value was “does not affect maximum VCD”. Besides, the cell growth entry was “important reduction on cell growth” in experiment [2] (Media_2 Feed_2, 8 g/L arginine, AMBR) and “reduces cell growth” in experiment [2] (Media_3 Feed_1, 2 to 4 g/L arginine, AMBR). Moreover, the cell density result was “does not have a negative effect in cell density” in experiment [2] (Media_3 Feed_3, 4 g/L arginine in combination with ferric citrate, AMBR) and “does not have a negative effect in cell density” in experiment [2] (Media_3 Feed_4, 4 g/L arginine in combination with 1 mM 3-methyl butyrate, AMBR).
